Experimental data from PMC5358321 (Synapse (New York, N.Y.), 2016).
Values joined by “and” are separate entries in the source; they are usually repeats but may differ in a detail not shown here. Equal entries are not always repeated. Marks after values point to notes of the source that are not given here.

What was measured:
[1] = molecular target: T1, Aβ plaques (Homo sapiens, UniProt P05067); settings: AD brain homogenates using ^18F-florbetapir; ref Choi et al., 2009; cited from earlier work
[2] = molecular target: T1, Aβ plaques; assay: Postmortem human brain; type: binding; settings: for GM/WM, local hot spots in grey matter: normal control NC2, hippocampus sections 7 μm
[3] = In vivo rat PET/CT, brain uptake; settings: for maximum (peak) activity levels in the various brain regions: 90 min scan; for time to approach plateau in cerebellum (CB): postinjection
[4] = In vivo rat whole body PET/CT, interscapular brown adipose tissue; settings: for IBAT +ATX uptake / Ratio uptake at 4.5 min/uptake at 85 min, IBAT +ATX: atomoxetine preinjection
[5] = molecular target: T1, Aβ plaques; assay: In vitro binding affinity: inhibition of [^3H]PIB binding in human AD brain
[6] = molecular target: Aβ plaques; settings: using ^125I-TZDM; ref Kung et al., 2003; cited from earlier work
[7] = test system: Aβ plaques; assay: Ki using ^125I-TZDM; type: binding
[8] = normal control NC1, hippocampus sections 7 μm
[9] = subject AD1, hippocampus sections 7 μm
[10] = subject AD2, hippocampus sections 7 μm
[11] = 4.5 min, atomoxetine preinjection
[12] = 4.5 min post iv injection, baseline
[13] = 85 min, atomoxetine preinjection

T1 sequence (P05067 672-711 limits assumed): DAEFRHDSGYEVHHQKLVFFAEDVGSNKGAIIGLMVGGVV

| Compound | GM/WM (gray matter to white matter ratio) [2, 8] | GM/WM, local hot spots in grey matter [2] | GM/WM (gray matter to white matter ratio) [2, 9] | GM/WM (gray matter to white matter ratio) [2, 10] | Cerebellum +ATX uptake [3, 11] [%injected dose/cc] | Frontal Cortex +ATX uptake [3, 11] [%injected dose/cc] | Brain-stem uptake [3, 12] [%injected dose/cc] | Cerebellum uptake [3, 12] [%injected dose/cc] | Frontal Cortex uptake [3, 12] [%injected dose/cc] | Brain-stem uptake ([3]; 85 min (end of scan), baseline) [%injected dose/cc] | Cerebellum +ATX uptake [3, 13] [%injected dose/cc] | Frontal Cortex +ATX uptake [3, 13] | Cerebellum uptake ([3]; 85 min, baseline) [%injected dose/cc] | Frontal Cortex uptake ([3]; 85 min, baseline) [%injected dose/cc] | Ratio of brainstem to frontal cortex ([3]; 85 min postinjection, baseline) | Ratio of cerebellum to frontal cortex ([3]; 85 min postinjection, baseline) | Ratio uptake at 4.5 min/uptake at 85 min, Brain-stem +ATX ([3]; atomoxetine preinjection) | Ratio uptake at 4.5 min/uptake at 85 min, Cerebellum +ATX ([3]; atomoxetine preinjection) | Ratio uptake at 4.5 min/uptake at 85 min, Frontal Cortex +ATX ([3]; atomoxetine preinjection) | IBAT Baseline uptake ([4]; 85 min (end of scan), baseline) | also measured |
| --- | --- | --- | --- | --- | --- | --- | --- | --- | --- | --- | --- | --- | --- | --- | --- | --- | --- | --- | --- | --- | --- |
| CNc1ccc(-c2cc3cc(O)ccc3o2)c(F)n1 [AZD4694] |  |  |  |  |  |  |  |  |  |  |  |  |  |  |  |  |  |  |  |  | Ki [1]: 0.0023 µM |
| CN(C)c1ccc(C=Cc2ccc(N[11CH3])cc2)cc1 [[^11C]Dalene, ^11C-methylamino-4′-dimethylaminostyrylbenzene] | ~1 | grey matter (~2) | 3.68 | 5.34 | 0.788 | 0.828 | 0.011 | 0.015 | 0.015 | 0.124 | 0.304 | 0.30 %injected dose/cc and 0.304 %injected dose/cc | 0.072 | 0.069 | 1.80 | 1.04 | 2.12 | 2.59 | 2.72 | 0.12 %Injected dose/cc and 0.118 %Injected dose/cc | fold lower GM/WM ratio than [^11C]TAZA ([2]; AD subjects): approximately 5 fold; Ratio of brainstem to frontal cortex [3, 13]: 1.75; Ratio of cerebellum to frontal cortex [3, 13]: 1.0; Ratio uptake at 4.5 min/uptake at 85 min, Brain-stem ([3]; baseline): 0.09; Ratio uptake at 4.5 min/uptake at 85 min, Cerebellum ([3]; baseline): 0.21; time at which brain uptake plateaued ([3]; baseline): approximately 60 min; maximum (peak) activity levels in the various brain regions ([3]; baseline): approximately 0.1 % injected dose/cc; time to approach plateau in cerebellum (CB) ([3]; baseline): approximately 40 min; IBAT +ATX uptake ([4]; 4.5 min (initial uptake)): 0.05 %Injected dose/cc and 0.054 %Injected dose/cc; IBAT Baseline uptake [4, 12]: 0.018 %Injected dose/cc; IBAT +ATX uptake ([4]; 85 min): 0.05 %Injected dose/cc; Ratio uptake at 4.5 min/uptake at 85 min, IBAT +ATX [4]: 1.08; Ratio uptake at 4.5 min/uptake at 85 min, IBAT Baseline ([4]; baseline): 0.15 |
| CNc1ccc(N=Nc2ccc(N(C)C)cc2)cc1 [TAZA, 4-methylamino-4′-N,N-dimethylaminoazobenzene] |  |  |  |  |  |  |  |  |  |  |  |  |  |  |  |  |  |  |  |  | Binding affinity Relative to PIB [5]: 7.81 ^g |
| [11CH3]Nc1ccc(-c2nc3ccc(O)cc3s2)cc1 [[^11C]PIB] |  |  |  |  |  |  |  | 0.823 | 0.714 | 0.056 |  |  | 0.124 | 0.045 |  |  |  |  |  | 0.056 %Injected dose/cc |  |
| CN(C)c1ccc(N=Nc2ccc(N[11CH3])cc2)cc1 [[^11C]TAZA, 4-[^11C]methylamino-4′-N,N-dimethylaminoazo-benzene] | ~1 | in grey matter (≥5) | 19.6 | 30.5 | 0.695 | 0.627 | 0.013 | 0.010 | 0.007 | 0.285 | 0.154 | 0.160 %injected dose/cc | 0.192 | 0.16 | 1.78 | 1.20 | 4.2 | 4.51 | 3.92 | 0.43 %Injected dose/cc and 0.429 %Injected dose/cc | displacement of [^11C]TAZA binding by PIB ([2]; 10 μM PIB, gray matter of AD1 and AD2 hippocampus): > 90% and > 94%; gray matter to white matter ratios in AD brains ([2]; AD brains, summary statement): > 20; ratio between initial time (4.5 min) and later time (85 min), brain regions ([3]; atomoxetine preinjection, brain regions overall): ~5; Ratio uptake at 4.5 min/uptake at 85 min, Brain-stem ([3]; baseline): 0.05; Ratio uptake at 4.5 min/uptake at 85 min, Cerebellum ([3]; baseline): 0.05; time at which brain uptake plateaued ([3]; baseline): approximately 60 min; maximum (peak) activity levels in the various brain regions ([3]; baseline): approximately 0.3 % injected dose/cc; time to approach plateau in cerebellum (CB) ([3]; baseline): approximately 50 min; reduction of brainstem to frontal cortex ratio by atomoxetine ([3]; end of scan): approximately 10%; IBAT +ATX uptake ([4]; 4.5 min (initial uptake)): 0.15 %Injected dose/cc and 0.148 %Injected dose/cc; IBAT Baseline uptake [4, 12]: 0.015 %Injected dose/cc; IBAT +ATX uptake ([4]; 85 min): 0.02 %Injected dose/cc and 0.016 %Injected dose/cc; Ratio uptake at 4.5 min/uptake at 85 min, IBAT +ATX [4]: 9 and 9.25; Ratio uptake at 4.5 min/uptake at 85 min, IBAT Baseline ([4]; baseline): 0.04; time at which IBAT activity leveled off / plateau ([4]; baseline): ~90 min |
| CNc1ccc(C=Cc2ccc(N(C)C)cc2)cc1 [Dalene, 4-methylamino-4′-N,N-dimethylaminostyrylbenzene] |  |  |  |  |  |  |  |  |  |  |  |  |  |  |  |  |  |  |  |  | Ki [6]: 0.015 µM and 0.0152 µM; Times weaker affinity compared to SB-13 ([7]; ^125I-TZDM assay, Kung et al., 2003): approximately 5; Binding affinity relative to SB-13 ([7]; compared to affinity measures of SB-13 in the same assay (^125I-TZDM; Kung et al., 2003)): (0.21) ^i |
